From patent US11299515B2, “Optimized peptides for targeting human nerves and their use in image guided surgery, diagnostics and therapeutic” (The Regents of the University of California, priority 2017, dated 2022)
Entries after “also recorded” stand apart in the source; their conditions may differ. Residues, ends and D or L forms follow the SMILES beside them. *: point of attachment. Fluorescein(5-Mal) = O=C1OC2(c3ccc(O)cc3Oc3cc(O)ccc32)c2ccc(N3C(=O)CC(*)C3=O)cc21

How the values were obtained:
[1] = system: sciatic nerve; format: in vivo, mice; conditions: 450 nmols i.v., SKH1 mice
Experimental: Either 150 or 450 nmoles of fluorescein labeled synthetic peptides were injected intravenously into mice. After a 2 hour waiting period for washout of nonspecific binding, mice were anesthetized and skin incisions were made over the dorsal surface of the hind legs to expose the sciatic nerve. Brightfield and fluorescent images were obtained with a dissecting microscope using Metamorph software (FIG. 1). Quantitation of fluorescence of nerves and adjacent non-nerve tissue was performed with Image J (FIG. 2). Peptides were also topically applied to human nerve sections. Nerves were freshly frozen in OTC prior to sectioning. Peptides were topically applied at concentration at 300 uM with images being shown for HNP401, HNP402, HNP404 and previous reported nerve binding peptides NP41 (FIG. 3)). Also shown are images for variants HNP301 ([…]) and NP124. NP713 was also tested and has not reported in a publication. NP713, is a derivative of NP41 with sequence […] that was enriched after 7 rounds of selection against mouse tissue, and was also found after 4 rounds of selection against human tissue. […] All D-amino acid controls for NP-41 and NP713 and non peptide conjugated carboxyfluorescein, are also shown. […] HNP401 was then tested for labeling of rat sciatic and rat prostate cavernosal nerve in-vivo. […] FIGS. 6 and 7 show in-vivo labeling of rat prostate cavernosal nerve with comparison to white light visualization.
Following anesthesia with intra-peritoneal injection of ketamine (80 mg/kg) and midazolam (40 mg/kg), FAM-NP41 or its variants were administered into mice retro-orbitally. After a washout period of 2-4 hours, the animals were anesthetized with ketamine (50 mg/ml) and xylazine (20 mg/ml). The bladder and prostate were exposed through a midline abdominal incision. The autonomic nerve along the cavernosal vessel in the prostate was imaged and recorded using a custom-made surgical imaging system. This system is a modified from Olympus MVX10 scope capable of hi-resolution fluorescence, RGB reflectance and realtime overlay with zoom from 0.6 to 5.7 cm field of view. Image) was used for quantitative analysis of nerve contrast for each peptide dye conjugate tested. Images of autonomic nerve in prostate were selected from the recorded files and magnified 300-400% prior to selection of ROI and measurement. Nerves and adjacent non-nerve tissues ROIs were hand-selected using polygonal selection tool at the same location from both of reflectance and fluorescence images. The mean and standard deviation of the pixel intensities within the selected areas were compared for nerves (mean=In, SD=σn) and adjacent background tissue (mean=Ib, SD=σb). Nerve to non-nerve contrast was calculated after background subtraction with formula |In−Ib|/(σn^2+σm^2)^0.5. For imaging the nerves in the prostate gland of male rats peptide dye conjugate were injected retro-orbitally. FAM-HNP401 was injected at a concentration of 13 mgs/kg followed by imaging after 15 minutes or alternatively a dose of 52 mgs/kg was used with imaging after 3 hours. Live animal surgery was performed under a ketamine-xylazine cocktail according to IACUC protocol. Sterile technique was used to expose the prostate; bladder was drained with a small syringe and sutured. The surgical field was washed with sterile saline prior to imaging. Mann-Whitney test was used to analyze data for both mice and rats to compare nerve intensity and nerve to non-nerve contrast between white light reflectance and fluorescence.

[2] = Mass spectroscopy analysis of urine after injection of nerve binding peptides
[3] = system: autonomic (cavernosal) nerves from human prostate gland; assay: Topical application on autonomic nerves from human prostate gland; format: binding; conditions: 100 μM topical, two patients
Experimental: FAM-HNP401 and FAM-NP41 were then tested topically for binding to autonomic nerves, isolated from excised prostate glands of two human patients (FIGS. 12 and 13). […] Labelled fiber were confirmed as nerve using anti-neurofilament antibody SMI312 (red) and DAPI (blue) to show nuclear labeling (FIG. 12C). H&E staining was also done to confirm label tissue as nerve (FIG. 12D). Similar staining was obtained for peripheral sensory anti-brachial cutaneous nerve isolated from a human arm (FIGS. 12E-H).
FAM-HNP401 and FAM-NP41 were tested for binding to autonomic nerves, isolated from the prostate glands of two human patients (FIGS. 19 and 29). […] Quantitation was not done because only 2 patient samples were available for testing as nerve resection during radical prostatectomy is only performed in instances of gross capsular invasion. Labelled fibers were confirmed as nerve using anti-neurofilament antibody SMI312 (red) with DAPI (blue) to show nuclear labeling (FIG. 19C). H&E staining also confirmed label tissue as nerve by histology (FIG. 19D). […] Similar staining using FAM-HNP401 was obtained for another sensory nerve (anti-brachial cutaneous) isolated from human arm showing the broad nerve binding activity of HNP401 (FIGS. 19E-H).
Human sural nerve, antebrachial nerve and laryngeal nerve and temporalis muscle were obtained under IRB protocol number 130837 for Dr. Quyen Nguyen. […]

[4] = system: mouse facial nerve; assay: Topical application on ex-vivo mouse facial nerve with surrounding muscle; format: binding; conditions: 375 and 100 μM topical
[5] = system: human laryngeal nerve; assay: Dose response by topical application on human laryngeal nerve sections; format: binding
Experimental: FIG. 25: Differential binding of nerve binding peptides to human and mouse tissue. Determination of optimal dose response by topical application of FAM-HNP401 on human laryngeal nerve sections at final concentration of 375 μM (A), 100 μM (B), 50 μM (C), 10 μM (D) and 1 μM (E), imaged with confocal microscopy with identical parameters and levelled equally for comparison. ** brightened 2 fold for viewing. Nerve to muscle contrast at high concentration of 375 μM for FAM-NP41 (F and G) and FAM-HNP401 (H and I) imaged on confocal microscopy and levelled for direct comparison. Mouse facial nerve (red arrows) with surrounding muscle treated with 375 μM (J), 100 μM (K) of FAM-NP41 or 375 μM (L), 100 μM (M) of FAMHNP401.
Dose response data set of FAM-HNP401 on human nerve tissue (FIG. 25:A-E) was acquired with 488 nm laser line, 10μm sections on glass at 10× magnification, 0.45 NA air objective lens. Gain set to 40, power set to 3% of laser power, pixel dwell value of 1.2 μs, aperture size of 1.1 μm and a pixel size of 0.3 μm/px with a 2 k by 2 k size image.
Human sural nerve, antebrachial nerve and laryngeal nerve and temporalis muscle were obtained under IRB protocol number 130837 for Dr. Quyen Nguyen. Human peripheral nerves (typically sural) were obtained from patients undergoing nerve resection procedures. […]

SMILES: CC(=O)N[C@@H](CO)C(=O)NCC(=O)N[C@@H](CCC(N)=O)C(=O)N[C@H](C(=O)N1CCC[C@H]1C(=O)N[C@@H](Cc1c[nH]c2ccccc12)C(=O)N[C@@H](CCC(=O)O)C(=O)N[C@@H](CCC(=O)O)C(=O)N1CCC[C@H]1C(=O)N[C@@H](Cc1ccc(O)cc1)C(=O)N[C@@H](Cc1ccc(O)cc1)C(=O)N[C@H](C(=O)N[C@H](C(=O)N[C@@H](CCCCN)C(=O)N[C@@H](CCCCN)C(=O)N[C@@H](CO)C(=O)N[C@@H](CO)C(=O)NCC(=O)NCC(=O)N[C@@H](CSC1CC(=O)N(c2ccc3c(c2)C(=O)OC32c3ccc(O)cc3Oc3cc(O)ccc32)C1=O)C(N)=O)C(C)C)C(C)C)C(C)C (some centres unmarked) [FAM-HNP401] (Ac-SGQVPWEEPYYVVKKSSGGC(Fluorescein(5-Mal))-NH2; N-terminus and C-terminus assumed)
- signal intensity for in-vivo binding to mouse sciatic nerve compared to FAM-NP41 [1]: 2.3 ×
- sciatic nerve fluorescent intensity compared to NP41 ([1]; 2 h post injection): 2.3 fold
- nerve to surrounding muscle contrast ([1]; mouse thigh): 5.79±0.81
- metabolism (species detected in urine) [2]: partially metabolized
- fluorescent signal in human autonomic nerves compared to FAM-NP41 [3]: significantly higher fluorescent signal
- labeling of mouse facial nerve versus surrounding muscle [4]: poor contrast; also recorded: did not perform as well as FAM-NP41
- concentration giving optimal nerve contrast ([5]; topical 1 to 375 μM): 50 to 100 µM
- concentration at which signal from human nerve saturates ([5]; topical up to 375 μM): ≤ 100 µM
